{
  "source": "paper PMC4932540",
  "about": "“Development of a New Radiofluorinated Quinoline Analog for PET Imaging of Phosphodiesterase 5 (PDE5) in Brain” (Pharmaceuticals, 2016)",
  "target": "T1, PDE5A1 (Homo sapiens, UniProt O76074)",
  "T1 construct": "gene PDE5A; human recombinant PDE5A1 protein",
  "experiment": "cAMP/cGMP-based PDE enzyme assay, recombinant protein",
  "type": "biochemical",
  "data": [
    {"smiles": "CCc1cc(C#N)cc2c(NCc3ccc(OC)c(Cl)c3)c(COCCF)cnc12", "note": "[ICF24027, 4-[(3-Chloro-4-methoxybenzyl)amino]-8-ethyl-3-[(2-fluoroethoxy)methyl]quinoline-6-carbonitrile]", "values": [
      {"measurement": "IC50", "value": 1.86, "unit": "nM"}
    ]}
  ]
}
